# Measured values: PubChem BioAssay AID2393 (NMMLSC, 2010)
# pEC50: −log10 of the molar value. Activity calls are given as the source filed them.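 How the source made its calls: active means none, because compounds meeting the potency rule were filed inconclusive for hitting several proteins; inconclusive means EC50 under 20 µM with over 15% binding change; inactive means the rest.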
# Columns and labels:
# Assay in all cases: small GTPase panel, fluorescent GTP binding blockade – biochemical, Mg buffer, constant GTP, RhoA, Rac1, Cdc42, mechanism study for Ras-family GTPase inhibitor project, profiling panel (AID 2393);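 on pEC50: EC50 marks half change in GTP binding and may reflect gain or loss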
# Details in all cases: GST-GTPase beads, BODIPY-GTP binding, flow cytometry; for GTP binding remaining (% of DMSO): at 100 µM (top of the series)
# [1] = target: Cell division control protein 42 homolog (Homo sapiens) (UniProt P60953)
# [2] = target: Transforming protein RhoA (Homo sapiens) (UniProt P61586)
# [3] = target: Ras-related C3 botulinum toxin substrate 1 (Homo sapiens) (UniProt P63000)
SMILES,EC50 ([1]; Cdc42ACT),pEC50 ([1]; Cdc42WT),GTP binding remaining (% of DMSO) ([2]; RhoACT),GTP binding remaining (% of DMSO) ([2]; RhoWT),GTP binding remaining (% of DMSO) ([1]; Cdc42ACT),GTP binding remaining (% of DMSO) ([1]; Cdc42WT),EC50 ([1]; Cdc42WT),pEC50 ([1]; Cdc42ACT),pEC50 ([2]; RhoWT),EC50 ([2]; RhoACT),EC50 ([2]; RhoWT),GTP binding remaining (% of DMSO) ([3]; Rac1ACT),GTP binding remaining (% of DMSO) ([3]; Rac1WT),EC50 ([3]; Rac1ACT),EC50 ([3]; Rac1WT),pEC50 ([3]; Rac1WT)
COc1ccc(-c2ccc(CCC(=O)N3CCN(c4cc(C)ccc4C)CC3)[nH]2)cc1,,,inactive,inactive,inactive,inactive,,,,,,inactive,inactive,,,
COc1ccc(-c2cc(CCC(=O)N3CCN(c4cc(C)ccc4C)CC3)[nH]n2)cc1,,,inactive,inactive,inactive,inactive,,,,,,inactive,inactive,,,
NS(=O)(=O)c1ccc(N2N=C(c3ccccc3)CC2c2cccc(Cl)c2)cc1 (centres undefined),,5.40,inactive,inactive,,,,5.29,,,,,,inactive,inactive,
NS(=O)(=O)c1ccc(N2N=C(c3ccccc3)CC2c2ccccc2)cc1 (centres undefined),,4.87,inactive,inactive,,,,4.88,,,,inactive,inactive,,,
COc1ccc(-c2cc(CCC(=O)N3CCN(c4cc(C)ccc4C)CC3)on2)cc1,,6.01,inactive,,,,,5.56,5.89,,,inactive,,,,5.56
COc1cccc(C2CC(c3ccccc3)=NN2c2ccc(S(N)(=O)=O)cc2)c1 (centres undefined),,5.33,,inactive,,,,5.33,,inactive,,inactive,inactive,,,
Cc1ccccc1C1CC(c2ccccc2)=NN1c1ccc(S(N)(=O)=O)cc1 (centres undefined),,4.81,inactive,inactive,,,,4.83,,,,inactive,inactive,,,
COc1ccc(-c2noc(CCC(=O)N3CCN(c4cc(C)ccc4C)CC3)n2)cc1,inactive,,,,,,inactive,,,inactive,inactive,inactive,,,,5.63
NS(=O)(=O)c1ccc(N2N=C(c3ccccc3)CC2c2cccc(Br)c2)cc1 (centres undefined),,5.16,inactive,inactive,,,,5.23,,,,inactive,inactive,,,
COc1ccc(C2CC(C(C)(C)C)=NN2c2ccc(S(N)(=O)=O)cc2)cc1 (centres undefined),,4.84,inactive,inactive,,,,4.78,,,,,inactive,inactive,,

# More lines, main results first:
EC50 ([1]; Cdc42ACT),pEC50 ([1]; Cdc42WT),GTP binding remaining (% of DMSO) ([2]; RhoACT),GTP binding remaining (% of DMSO) ([2]; RhoWT),GTP binding remaining (% of DMSO) ([1]; Cdc42ACT),GTP binding remaining (% of DMSO) ([1]; Cdc42WT),EC50 ([1]; Cdc42WT),pEC50 ([1]; Cdc42ACT),pEC50 ([2]; RhoWT),EC50 ([2]; RhoACT),EC50 ([2]; RhoWT),SMILES,GTP binding remaining (% of DMSO) ([3]; Rac1ACT),GTP binding remaining (% of DMSO) ([3]; Rac1WT),EC50 ([3]; Rac1ACT),EC50 ([3]; Rac1WT),pEC50 ([3]; Rac1WT)
inactive,5.72,inactive,inactive,,,,,,,,COc1ccc(C2CC(c3cccc(OC)c3)=NN2c2ccc(S(N)(=O)=O)cc2)cc1 (centres undefined),inactive,inactive,,,
inactive,,inactive,inactive,,,inactive,,,,,COc1ccc(C2CC(c3ccc(C)cc3)=NN2c2ccc(S(N)(=O)=O)cc2)cc1 (centres undefined),inactive,inactive,,,
,5.39,inactive,inactive,,,,5.37,,,,COc1ccc(C2CC(c3cccs3)=NN2c2ccc(S(N)(=O)=O)cc2)cc1 (centres undefined),inactive,inactive,,,
,5.40,inactive,inactive,,,,5.37,,,,NS(=O)(=O)c1ccc(N2N=C(c3ccccc3)CC2c2ccc(Cl)cc2)cc1 (centres undefined),inactive,,,inactive,
,,inactive,inactive,inactive,inactive,,,,,,COc1ccc(C2CC(c3cccc(C(F)(F)F)c3)=NN2c2ccc(S(N)(=O)=O)cc2)cc1 (centres undefined),inactive,inactive,,,
,,inactive,inactive,inactive,inactive,,,,,,COc1ccc(C2CC(c3ccccc3C)=NN2c2ccc(S(N)(=O)=O)cc2)cc1 (centres undefined),inactive,inactive,,,
,5.68,inactive,inactive,,,,5.73,,,,COc1ccc(C2CC(c3cccc(C)c3)=NN2c2ccc(S(N)(=O)=O)cc2)cc1 (centres undefined),,inactive,inactive,,
,,inactive,inactive,inactive,inactive,,,,,,COc1ccc(C2CC(C)=NN2c2ccc(S(N)(=O)=O)cc2)cc1 (centres undefined),,inactive,inactive,,
inactive,,inactive,inactive,,inactive,,,,,,COc1ccc(C2=NN(c3ccc(S(N)(=O)=O)cc3)C(c3ccc(OC)cc3)C2)cc1 (centres undefined),inactive,inactive,,,
,,inactive,inactive,inactive,inactive,,,,,,COc1ccc(C2CC(c3ccc(C(F)(F)F)cc3)=NN2c2ccc(S(N)(=O)=O)cc2)cc1 (centres undefined),inactive,inactive,,,
,5.28,inactive,inactive,,,,5.28,,,,COc1ccc(C2CC(c3ccsc3)=NN2c2ccc(S(N)(=O)=O)cc2)cc1 (centres undefined),inactive,,,inactive,
,5.25,inactive,inactive,,,,5.28,,,,COc1ccc(C2CC(c3ccccc3OC)=NN2c2ccc(S(N)(=O)=O)cc2)cc1 (centres undefined),inactive,inactive,,,
,5.36,inactive,inactive,,,,5.29,,,,Cc1ccc(C2CC(c3ccccc3)=NN2c2ccc(S(N)(=O)=O)cc2)cc1 (centres undefined),inactive,,,inactive,
,5.83,inactive,inactive,,,,5.78,,,,NS(=O)(=O)c1ccc(N2N=C(c3ccccc3)CC2c2ccc(Br)cc2)cc1 (centres undefined),inactive,,,inactive,
